Measured values from patent US9578878B2, “Antimicrobial efficacy of an oregano oil and caprylic acid blend” (Kemin Industries, Inc., priority 2014, dated 2017).

Tests used:
A. brasiliensis = assay: Poison agar assay; format: cell-based, Aspergillus brasiliensis
Method: (§1) Microorganisms Escherichia coli (ATCC #8739), Streptococcus sanguinis (ATCC #BAA-1455), Salmonella enteria subsp. enterica (ex Kauffmann and Edwards) Le Minor and Popoff serovar Typhimurium (ATCC #14028), Staphylococcus aureus (ATCC #6538), Pseudomonas aeruginosa (ATCC #9027), and Candida albicans (ATCC #10231) were obtained from a −80° C. internal stock culture. Aspergillus brasiliensis (ATCC #16404) was obtained from an internal stock solution culture stored at 4° C. E. coli, S. enterica S. aureus, and P. aeruginosa were grown in tryptic soy broth (TSB) and incubated at 37° C. for 24 h. S. sanguinis was grown in brain heart infusion broth (BHI). A. brasiliensis was plated on Sabourand dextrose agar (SDA) and incubated at 25° C. for 5-7 days. C. albicans was grown in Sabourand dextrose broth (SDB) and incubated at 25° C. for 48 h.
(§2) A. brasiliensis was harvested by adding 18 mL sterile saline to the plate and agitating the mold from the agar with a sterile inoculating loop. The inoculum was collected upon agitation. All suspended microbes were diluted with the same type of broth media used to grow each organism until an inoculum in the range of 10^6 CFU/mL was achieved. The inoculum concentration was determined by plate count method. Each strain was identified by plating on the appropriate growth media, E. coli, S. aureus, and P. aeruginosa on tryptic soy agar (Bacto, BD Sciences, Manassas, Va.) and C. albicans and A. brasiliensis on Sabrouand dextrose agar, to ensure there was no contamination of the inoculum.
A poison agar assay was completed for A. brasiliensis. Potato dextrose agar was used as the plated medium. Inocula at 10^5 cfu/ml were prepared and counted using a Petroff-Hausser counting chamber. Each treatment was added directly into the control without DMSO and Tween 80 as used in the previous experiments. The diameter of no growth around a 6 mm blank disk after incubation at 25° C. for 72 hrs was compared to the untreated control.

[1] = tested on: Staphylococcus aureus (ATCC #6538); assay: Microtiter assay, MIC to inhibit 90% growth; format: cell-based; conditions: 24 hours, n = 3
Method: (§3) For assays to find minimum inhibitory concentrations, all treatments were diluted in 10% DMSO and 0.5% Tween 80 to stabilize the samples.
as §1, §2
(§4) Microtiter Assay. A microtiter assay was completed E. coli, S. aureus, P. aeruginosa, S. enteria, S. sanguinis, and C. albicans. Briefly, 10^6 cfu/ml preparations of each organism were made and enumerated using a Petroff-Hausser counting chamber. A 100 μl aliquot of the inoculums was dispensed into microtiter plate wells and a 100 μl aliquot of treatment was dispensed into the same wells. Two separate set of wells were prepared as positive and negative controls, with the positive wells containing 100 μl test organism in growth media and 100 μl sterile phosphate buffer and with the negative control wells containing 100 μl of the same growth media and 100 μl sterile phosphate buffer. The plates were incubated overnight at the appropriate temperature for each organism. A plate reader was used to track the kinetic growth curve using 405 nm and […]. The last time point at 24 hours was averaged and used to determine MIC90. Each treatment was conducted in triplicate wells.

Salmonella enterica = assay: Microtiter assay, MIC to inhibit 90% growth; format: cell-based; conditions: 24 hours, n = 3
Method: as §3, §1, §2, §4

[2] = tested on: Streptococcus sanguinis (ATCC #BAA-1455); assay: Microtiter assay, MIC to inhibit 90% growth; format: cell-based; conditions: 24 hours, n = 3
Method: as §3, §1, §2, §4

[3] = tested on: Pseudomonas aeruginosa (ATCC #9027); assay: Microtiter assay, MIC to inhibit 90% growth; format: cell-based; conditions: 24 hours, n = 3
Method: as §3, §1, §2, §4

[4] = tested on: Candida albicans (ATCC #10231); assay: Microtiter assay, MIC to inhibit 90% growth; format: cell-based; conditions: 24 hours, n = 3
Method: as §3, §1, §2, §4

[5] = tested on: Escherichia coli (ATCC #8739); assay: Microtiter assay, MIC to inhibit 90% growth; format: cell-based; conditions: 24 hours, n = 3
Method: as §3, §1, §2, §4

CCCCCCCC(=O)O [Caprylic Acid, octanoic acid]
% Inhibition from Control (A. brasiliensis; 0.045% in agar): 34.60%
Diameter of Growth (A. brasiliensis; 0.045% in agar): 5.00 mm
% Inhibition from Control (A. brasiliensis; 0.090% in agar): 100.00%
Diameter of Growth (A. brasiliensis; 0.090% in agar): 0.00 mm
% Inhibition from Control (A. brasiliensis; 0.270% in agar): 100.00%
Diameter of Growth (A. brasiliensis; 0.270% in agar): 0.00 mm
MIC90 in the poison agar assay (A. brasiliensis; potato dextrose agar, 25° C., 72 hrs): 0.09%
Minimum Inhibitory Concentration (MIC) to inhibit 90% growth, S. aureus [1]: 0.09%
Minimum Inhibitory Concentration (MIC) to inhibit 90% growth, S. enterica (Salmonella enterica): 0.90%
Minimum Inhibitory Concentration (MIC) to inhibit 90% growth, S. sanguinis [2]: 0.09%
Minimum Inhibitory Concentration (MIC) to inhibit 90% growth, P. aeruginosa [3]: 0.90%
Minimum Inhibitory Concentration (MIC) to inhibit 90% growth, C. albicans [4]: 0.09%
Minimum Inhibitory Concentration (MIC) to inhibit 90% growth, E. coli [5]: 0.27%
